SMILES strings stand for the structures. Counter-ions that a name gives are not always drawn. Some results are limits rather than exact numbers.

Broadly, the melting point is the temperature, or range, at which the solid turns liquid. Usually IC50 stands for the concentration that inhibits the measured activity by half. A higher IC50 goes with lower potency.

Series [1] has as its target HIV-1 integrase (Human immunodeficiency virus type 1 group M subtype B, UniProt P12497). In words: HIV-1 integrase inhibition assay (microtiter plate, substrate/target DNA, OD 405 nm).
Description: (2) Calculations of the Percent Inhibitions (the IC50 Values of Test Compounds)
Streptavidin, obtained from Vector Laboratories, was dissolved in 0.1 M carbonate buffer (composition: 90 mM Na2CO3, 10 mM NaHCO3) at concentration of 40 μg/ml. After coating each well of microtiter plates (obtained from NUNC) with 50 μl of the above solution at 4° C. over night, each well was washed twice with PBS (composition: 13.7 mM NaCl, 0.27 mM KCl, 0.43 mM Na2HPO4, 0.14 mM KH2PO4) and blocked with 300 μl of 1% skim milk in PBS for 30 min. Additionally, each well was washed twice with PBS and added 50 μl of substrate DNA solution (2 pmol/μl). The microtiter plates were kept at room temperature for 30 min. Then, each well was washed twice with PBS and once with H2O.
Subsequently, in the each well prepared above were added 45 μl of the reaction buffer prepared from 12 μl of the buffer (composition: 150 mM MOPS (pH 7.2), 75 mM MnCl2, 50 mM 2-mercaptoethanol, 25% glycerol, 500 μg/ml bovine serum albumin-fraction V), 1 μl of target DNA (5 pmol/μl), and 32 μl of the distilled water. Additionally, 6 μl of either a test compound in DMSO or DMSO for positive control(PC) was mixed with the above reaction buffer, then 9 μl of an integrase solution (30 pmol) was added and mixed well. In the well of negative control (NC) was added 9 μl of the integrase dilution buffer (composition: 20 mM MOPS (pH7.2), 400 mM potassium glutamate, 1 mM EDTA, 0.1% NP-40, 20% glycerol, 1 mM DTT, 4M urea).
The microtiter plates were incubated at 30° C. for 1 hour. The reaction solution was removed and each well was washed twice with PBS. Subsequently, each well of the microtiter plates was filled with 100 μl of anti-digoxigenin antibody labeled with alkaline phosphatase (Sheep Fab fragment: obtained from Boehringer) and incubated at 30° C. for 1 hour. Then, each well was washed twice with 0.05% Tween20 in PBS and once with PBS. Next, 150 μl of the Alkaline phosphatase reaction buffer (composition: 10 mM p-Nitrophenylphosphate (obtained from Vector Laboratories), 5 mM MgCl2, 100 mM NaCl, 100 mM Tris-HCl (pH 9.5))was added in each well. […] The optical density (OD) at 405 nm of each well was measured and the percent inhibition was determined by the following expression.
The percent inhibition (%)=100[1-{(C abs.−NC abs.)/(PC abs.−NC abs.)}]
C abs.; the OD of the well of the compounds
NC abs.: the OD of the negative control (NC)
PC abs.: the OD of the positive control (PC)
IC50(μg/ml)=x−{(X−50)(x−y)/(X−Y)}

Compound `O=C(C=C(O)c1ncc[nH]1)c1ccc(Cc2ccc(F)cc2)o1` (as salt: hydrochloride) [I-101, 1-[5-(4-Fluorobenzyl)furan-2-yl]-3-hydroxy-3-(1H-imidazol-2-yl)-propenone hydrochloride] gave a melting point of 186 to 191 °C. `O=C(/C=C(\O)c1nc[nH]n1)c1cc(C(=O)O)n(Cc2ccccc2)c1` [I-2, 1-[(1-Benzyl-5-carboxy)pyrrol-3-yl]-3-hydroxy-3-(1H-1,2,4-triazol-3-yl)-propenone] came in with a melting point of 264 to 265 °C. For the same compound, the IC50 in series [1] was 2.96 µM.

Consider `O=C(C=C(O)c1nc[nH]n1)c1c[nH]cc1Cc1ccc(F)cc1` [I-14, 1-[4-(4-Fluorobenzyl)pyrrol-3-yl]-3-hydroxy-3-(1H-1,2,4-triazol-3-yl)-propenone], for which the melting point fell in the range of 210 to 213 °C. Compound `O=C(O)C(O)=CC(=O)c1cc[nH]c1` [I-22, 2-Hydroxy-4-oxo-4-(pyrrol-3-yl)-2-butenoic acid] had a melting point of 185 to 192 °C. Turning to `O=C(O)C(O)=CC(=O)c1ccn(S(=O)(=O)c2ccccc2)c1` [I-23, 4-(1-Benzenesulfonylpyrrol-3-yl)-2-hydroxy-4-oxo-2-butenoic acid], the melting point is 186 to 188 °C. On to `O=C(C=C(O)c1nn[nH]n1)c1c[nH]cc1CCc1ccccc1` [I-25, 3-Hydroxy-1-[(4-(2-phenylethyl))pyrrol-3-yl]-3-(2H-tetrazol-5-yl)-propenone], for which the melting point lay in the range of 228 to 230 °C. The same measure, in the same setting: to `O=C(C=C(O)c1nn[nH]n1)c1cn(S(=O)(=O)c2ccccc2)cc1CCc1ccccc1` [I-31, 1-[[1-Benzenesulfonyl-4-(2-phenylethyl)]pyrrol-3-yl]-3-hydroxy-3-(2H-tetrazol-5-yl)-propenone] belongs 178 to 181 °C. The compound `CCCn1cc(Cc2ccc(F)cc2)c(C(=O)C=C(O)c2nc[nH]n2)c1` [I-35, 1-[[4-(4-Fluorobenzyl)-1-n-propyl]pyrrol-3-yl]-3-hydroxy-3-(1H-1,2,4-triazol-3-yl)-propenone] showed a melting point of 210 to 211 °C. Still for that read-out and setting: to `O=C(C=C(O)c1nc[nH]n1)c1occc1Cc1ccc(F)cc1` [I-45, 1-[3-(4-Fluorobenzyl)furan-2yl]-3-hydroxy-3-(1H-1,2,4-triazol-3-yl)-propenone] belongs 221 to 223 °C; to `O=C(C=C(O)c1nn[nH]n1)c1occc1Cc1ccc(F)cc1` [I-46, 1-[3-(4-Fluorobenzyl)furan-2-yl]-3-hydroxy-3-(2H-tetrazol-5-yl)-propenone], 171 to 174 °C; to `O=C(C=C(O)c1nc[nH]n1)c1ccoc1Cc1ccc(F)cc1` [I-49, 1-[2-(4-Fluorobenzyl)furan-3-yl]-3-hydroxy-3-(1H-1,2,4-triazol-3-yl)-propenone], 170 to 177 °C. On the same count and under the same terms, to `O=C(C=C(O)c1nn[nH]n1)c1ccoc1Cc1ccc(F)cc1` [I-52, 1-[2-(4-Fluorobenzyl)furan-3-yl]-3-hydroxy-3-(2H-tetrazol-5-yl)-propenone] belongs 150 to 153 °C. Compound `COC(=O)C(O)=CC(=O)c1ccc(Cc2ccc(F)cc2)o1` [I-53, 4-[5-(4-Fluorobenzyl)furan-2-yl]-2-hydroxy-4-oxo-2-butenoic acid methyl ester] returned a melting point of 102 to 104 °C. Also, the concentration for half-maximal inhibition (IC50) in series [1] is 7.89 µM. `O=C(O)C(O)=CC(=O)c1ccc(Cc2ccc(F)cc2)o1` [I-54, 4-[5-(4-Fluorobenzyl)furan-2-yl]-2-hydroxy-4-oxo-2-butenoic acid] returned a melting point of 145 to 148 °C. In addition, the IC50 in series [1] was 0.827 µM.

For `O=C(C=C(O)c1nn[nH]n1)c1ccc(Cc2ccc(F)cc2)o1` [I-55, 1-[5-(4-Fluorobenzyl)furan-2-yl]-3-hydroxy-3-(2H-tetrazol-5-yl)-propenone], the melting point was in the range of 121 to 123 °C.

`Cc1nc(C(O)=CC(=O)c2ccc(Cc3ccc(F)cc3)o2)n[nH]1` [I-60, 1-[5-(4-Fluorobenzyl)furan-2-yl]-3-hydroxy-3-(5-methyl-1H-1,2,4-triazol-3-yl)-propenone] registered a melting point of 179 to 182 °C. The compound further had a half-inhibitory concentration (IC50) in series [1] of 2.11 µM. Compound `Cc1cc(Cc2ccc(F)cc2)oc1C(=O)C=C(O)c1nc[nH]n1` [I-61, 1-[[5-(4-Fluorobenzyl)-3-methyl]furan-2-yl]-3-hydroxy-3-(1H-1,2,4-triazol-3-yl)-propenone] had a melting point of 191 to 192 °C. Also, the IC50 in series [1] is 2.08 µM. `O=C(C=C(O)c1nc[nH]n1)c1ccc(Sc2ccc(F)cc2)o1` [I-68, 1-[5-(4-Fluorophenylthio)furan-2-yl]-3-hydroxy-3-(1H-1,2,4-triazol-3-yl)-propenone]: in series [1], 0.996 µM corresponded to half-maximal inhibition (IC50). On the same count and under the same terms, the same measure for `O=C(C=C(O)c1ncc[nH]1)c1ccc(Cc2ccc(F)cc2)o1` [I-101, 1-[5-(4-Fluorobenzyl)furan-2-yl]-3-hydroxy-3-(1H-imidazol-2-yl)-propenone hydrochloride]: 1.7 µM; for `O=C(C=C(O)c1nccs1)c1ccc(Cc2ccc(F)cc2)o1` [I-104, 1-[5-(4-Fluorobenzyl)furan-2-yl]-3-hydroxy-3-(thiazol-2-yl)-propenone]: 1.76 µM.

As for `O=C(C=C(O)c1ccccn1)c1ccc(Cc2ccc(F)cc2)o1` [I-106, 1-[5-(4-Fluorobenzyl)furan-2-yl]-3-hydroxy-3-(pyridin-2-yl)-propenone], the melting point was in the range of 84 to 85 °C. Take `NC(=O)C(O)=CC(=O)c1ccc(Cc2ccc(F)cc2)o1` [I-134, 4-[5-(4-Fluorobenzyl)furan-2-yl]-2-hydroxy-4-oxo-2-butenoic acid amide]: the melting point fell in the range of 113 to 115 °C.

As for `O=C(Nc1ccccn1)C(O)=CC(=O)c1ccc(Cc2ccc(F)cc2)o1` [I-135, 4-[5-(4-Fluorobenzyl)furan-2-yl]-2-hydroxy-4-oxo-2-butenoic acid pyridin-2-yl amide], the melting point is above 250 °C. As to `O=C(Nc1nccs1)C(O)=CC(=O)c1ccc(Cc2ccc(F)cc2)o1` [I-136, 4-[5-(4-Fluorobenzyl)furan-2-yl]-2-hydroxy-4-oxo-2-butenoic acid thiazol-2-yl amide], the melting point was 198 °C (dec.).

For the compound `O=C(Nc1ccccc1)C(O)=CC(=O)c1ccc(Cc2ccc(F)cc2)o1` [I-137, 4-[5-(4-Fluorobenzyl)furan-2-yl]-2-hydroxy-4-oxo-2-butenoic acid phenyl amide], the melting point was in the range of 132 to 134 °C. The same measure, in the same setting: the same measure for `O=C(Nc1nc[nH]n1)C(O)=CC(=O)c1ccc(Cc2ccc(F)cc2)o1` [I-138, 4-[5-(4-Fluorobenzyl)furan-2-yl]-2-hydroxy-4-oxo-2-butenoic acid (1H-1,2,4-triazol-3-yl)amide]: 250 °C (dec.); for `O=C(Nc1nncs1)C(O)=CC(=O)c1ccc(Cc2ccc(F)cc2)o1` [I-139, 4-[5-(4-Fluorobenzyl)furan-2-yl]-2-hydroxy-4-oxo-2-butenoic acid ([1,3,4]thiadiazol-2-yl)amide]: 199 to 201 °C (dec.); for `O=C(C=C(O)c1ccccn1)c1cnc(Cc2ccc(F)cc2)o1` [I-151, 1-[2-(4-Fluorobenzyl)oxazolyl-5-yl]-3-hydroxy-3-(pyridin-2-yl)-propenone]: 108 to 109 °C. The same measure, in the same setting: the same measure for `O=C(C=C(O)c1ncccn1)c1cnc(Cc2ccc(F)cc2)o1` [I-152, 1-[2-(4-Fluorobenzyl)oxazolyl-5-yl]-3-hydroxy-3-(pyrimidin-2-yl)-propenone]: 97 to 100 °C.

The values are drawn from patent US6620841B1, “Aromatic heterocycle compounds having HIV integrase inhibiting activities” (Shionogi & Co., Ltd., priority 1998, dated 2003).
